Test results published in patent US12697326B2, “Methods of treating hepatic encephalopathy” (SALIX PHARMACEUTICALS, INC., priority 2008, dated 2026).

What was measured:
[1] = test system: Conn score (mental state grade) in subjects with HE; experiment: Time to any increase from baseline in Conn score, first study; assay type: in vivo, human
From the text: Measurements of change in mental status may be done, for example, by the Conn score (also known as the West Haven score). The Conn score has been widely used as a measure of mental state in HE studies and is based on the criteria of Parsons-Smith as modified by Conn. Asterixis will not be considered when assessing the subject's status using the Conn scoring criteria listed below.
The scale used in the Conn scoring system is provided below. • Grade 0=No personality or behavioral abnormality detected • Grade 1=Trivial lack of awareness, euphoria or anxiety; shortened attention span; impairment of addition or subtraction • Grade 2=Lethargy; disorientation for time; obvious personality change; inappropriate behavior • Grade 3=Somnolence to semi-stupor, responsive to stimuli; confused; gross disorientation; bizarre behavior • Grade 4=Coma; unable to test mental state
FIG. 11 illustrates time to any increase from baseline in Conn score by treatment group in the ITT population. Table 20 presents estimates of the proportions of subjects who had any increase in Conn score over the course of the Treatment Period and results of statistical analyses. Subjects who discontinued prior to experiencing an increase in Conn score and prior to completion of the 6-month treatment period were censored at the time of discontinuation.

[2] = test system: asterixis grade in subjects with HE; experiment: Time to any increase from baseline in asterixis grade, first study; assay type: in vivo, human; conditions: for Probability of no increase in asterixis grade: Kaplan-Meier estimate, ITT; for Probability of no increase in asterixis grade / Cummulative number of events (increase in asterixis grade) / Number of events (increase in asterixis grade): Rifaximin N = 140; for Cummulative number of events (increase in asterixis grade) / Number of events (increase in asterixis grade): ITT population
Description: Asterixis (flapping tremor) was determined with the subject holding both arms and forearms extended with wrists dorsiflexed and fingers open for ≥30 seconds. Asterixis was measured on a continuum of 5 grades, e.g., grades 0 and 4=no abnormal movement vs. almost continuous flapping motions, respectively as shown below: • Grade 0=No tremors; • Grade 1=Rare flapping motions; • Grade 2=Occasional, irregular flaps; • Grade 3=Frequent flaps; and • Grade 4=Almost continuous flapping motions.
Efficacy in regard to asterixis grade was measured as time to any increase from baseline in asterixis grade.
FIG. 12 illustrates time to any increase from baseline in asterixis grade by treatment group in the ITT population in the first study. Table 21 presents estimates of the proportions of subjects who had any increase in asterixis grade over the course of the Treatment Period and results of statistical analyses. Subjects who discontinued prior to experiencing an increase in asterixis grade and prior to completion of the 6-month treatment period were censored at the time of discontinuation.

[3] = test system: blood ammonia concentration in subjects with HE; experiment: Blood (venous) ammonia concentration, change from baseline, first study; assay type: in vivo, human; conditions: ITT, change from baseline to end of treatment
Description: Venous blood samples (10 mL) were collected and ammonia concentrations were obtained by methods known in the art.
Mean values and mean changes from baseline in blood ammonia concentration and critical flicker frequency values were collected. Analyses of blood ammonia concentrations and critical flicker frequency values were based upon quantitative values (not qualitative grades). Treatment differences for mean change from baseline in these parameters was estimated using a mixed effects model with fixed effects for time and baseline value.
Table 22 summarizes changes from baseline to end of treatment in venous ammonia level by treatment group in the first study.

[4] = test system: Staphylococcus, Streptococcus, Enterococcus, and Enterobacteriaceae; conditions: cited from earlier work
[5] = any increase from baseline in Conn score, 550 mg BID, N = 140, Days >=168
[6] = any increase from baseline in Conn score; 550 mg BID; N = 140; Days [0-28)
[7] = any increase from baseline in Conn score; 550 mg BID; N = 140; Days [28-56)
[8] = any increase from baseline in Conn score; 550 mg BID; N = 140; Days [56-84)
[9] = any increase from baseline in Conn score; 550 mg BID; N = 140; Days [84-140)
[10] = any increase from baseline in Conn score; 550 mg BID; N = 140; Days [140-168)
[11] = first study, ITT, first increase in Conn score, N = 140, treatment interval 0 to <28 days
[12] = first study, ITT, first increase in Conn score, N = 140, treatment interval 28 to <56 days
[13] = first study, ITT, first increase in Conn score, N = 140, treatment interval 56 to <84 days
[14] = first study, ITT, first increase in Conn score, N = 140, treatment interval 84 to <140 days
[15] = first study, ITT, first increase in Conn score, N = 140, treatment interval 140 to <168 days
[16] = first study, ITT, first increase in Conn score, N = 140, treatment interval ≥168 days
[17] = Treatment interval 0 to <28 days
[18] = Treatment interval 28 to <56 days
[19] = Treatment interval 56 to <84 days
[20] = Treatment interval 84 to <140 days
[21] = Treatment interval 140 to <168 days
[22] = any increase from baseline in asterixis grade, 550 mg BID, N = 140, Days >=168
[23] = any increase from baseline in asterixis grade; 550 mg BID; N = 140; Days [0-28)
[24] = any increase from baseline in asterixis grade; 550 mg BID; N = 140; Days [28-56)
[25] = any increase from baseline in asterixis grade; 550 mg BID; N = 140; Days [56-84)
[26] = any increase from baseline in asterixis grade; 550 mg BID; N = 140; Days [84-140)
[27] = any increase from baseline in asterixis grade; 550 mg BID; N = 140; Days [140-168)

## CO[C@H]1/C=C/O[C@@]2(C)Oc3c(C)c(O)c4c(O)c(c5c(nc6cc(C)ccn65)c4c3C2=O)NC(=O)/C(C)=C\C=C\[C@H](C)[C@H](O)[C@@H](C)[C@@H](O)[C@@H](C)[C@H](OC(C)=O)[C@@H]1C [Rifaximin]
[1]; [5]
  Cumulative Occurrences of Events: 37
  Occurrences of Events: 1
  Survival: 0.7302
[1]; [6]
  Cumulative Occurrences of Events: 17
  Occurrences of Events: 17
  Survival: 1.0000
[1]; [7]
  Cumulative Occurrences of Events: 22
  Occurrences of Events: 5
  Survival: 0.8777
[1]; [8]
  Cumulative Occurrences of Events: 31
  Occurrences of Events: 9
  Survival: 0.8407
[1]; [9]
  Cumulative Occurrences of Events: 36
  Occurrences of Events: 5
  Survival: 0.7713
[1]; [10]
  Cumulative Occurrences of Events: 36
  Occurrences of Events: 0
  Survival: 0.7302
[1]; [11]
  Cummulative number of events: 17
  Number of events: 17
  Probability of no increase in Conn score: 1.0000
[1]; [12]
  Cummulative number of events: 22
  Number of events: 5
[1]; [13]
  Cummulative number of events: 31
  Number of events: 9
[1]; [14]
  Cummulative number of events: 36
  Number of events: 5
[1]; [15]
  Cummulative number of events: 36
  Number of events: 0
[1]; [16]
  Cummulative number of events: 37
  Number of events: 1
[1]; first study, rifaximin group
  subjects with increases in Conn score (of 140): 37
[1]; in vivo
  time to first increase in Conn scores vs placebo (FIG. 4, Kaplan Meier): increased time to the first increase in Conn scores
[2]; [17]
  Probability of no increase in asterixis grade: 1.0000
  Cummulative number of events (increase in asterixis grade): 13
[2]; [18]
  Probability of no increase in asterixis grade: 0.9048
  Cummulative number of events (increase in asterixis grade): 20
  Number of events (increase in asterixis grade): 7
[2]; [19]
  Probability of no increase in asterixis grade: 0.8499
  Cummulative number of events (increase in asterixis grade): 27
  Number of events (increase in asterixis grade): 7
[2]; [20]
  Probability of no increase in asterixis grade: 0.7910
  Cummulative number of events (increase in asterixis grade): 30
  Number of events (increase in asterixis grade): 3
[2]; [21]
  Probability of no increase in asterixis grade: 0.7637
  Cummulative number of events (increase in asterixis grade): 31
  Number of events (increase in asterixis grade): 1
[2]; Treatment interval ≥168 days
  Probability of no increase in asterixis grade: 0.7534
  Cummulative number of events (increase in asterixis grade): 32
  Number of events (increase in asterixis grade): 1
[2]; [22]
  Cumulative Occurrences of Events: 32
  Occurrences of Events: 1
[2]; [23]
  Cumulative Occurrences of Events: 13
  Occurrences of Events: 13
[2]; [24]
  Cumulative Occurrences of Events: 20
  Occurrences of Events: 7
[2]; [25]
  Cumulative Occurrences of Events: 27
  Occurrences of Events: 7
[2]; [26]
  Cumulative Occurrences of Events: 30
  Occurrences of Events: 3
[2]; [27]
  Cumulative Occurrences of Events: 31
  Occurrences of Events: 1
[2]; first study, rifaximin group
  subjects with increases in asterixis grade (of 140): 32
[2]; in vivo
  time to first increase in Asterixis grade vs placebo (FIG. 5, Kaplan Meier): increased time to the first increase in Asterixis grade
[3]
  Mean (SD) change in ammonia level: −5.7 (46.77) μg/dL
[4]
  in vitro activity against species of Staphylococcus, Streptococcus, Enterococcus, and Enterobacteriaceae: active
